According to ChEMBL document CHEMBL4390652, “Design, biological evaluation and X-ray crystallography of nanomolar multifunctional ligands targeting simultaneously acetylcholinesterase and glycogen synthase kinase-3” (Eur J Med Chem, 2019):

Assays:
[1] = biological target: 5'-AMP-activated protein kinase catalytic subunit alpha-2 (Homo sapiens) (UniProt P54646); experiment: Binding affinity to wild-type human partial length AMPK alpha2 (M1 to E306 residues) expressed in bacterial expression system assessed as residual binding level at 10 uM by Kinomescan method relative to control
[2] = biological target: Tyrosine-protein kinase receptor UFO (Homo sapiens) (UniProt P30530); experiment: Binding affinity to wild-type human partial length AXL (R497 to Y821 residues) expressed in bacterial expression system assessed as residual binding level at 10 uM by Kinomescan method relative to control
[3] = biological target: Cyclin-dependent kinase 13 (Homo sapiens) (UniProt Q14004); experiment: Binding affinity to wild-type human partial length CDC2L5 (H675 to S1054 residues) expressed in mammalian expression system assessed as residual binding level at 10 uM by Kinomescan method relative to control
[4] = biological target: Dual specificity protein kinase CLK4 (Homo sapiens) (UniProt Q9HAZ1); experiment: Binding affinity to wild-type human partial length CLK4 (R135 to K481 residues) expressed in bacterial expression system assessed as residual binding level at 10 uM by Kinomescan method relative to control
Dual specificity protein kinase CLK4 (Homo sapiens), sequence (Q9HAZ1 whole entry, looked up, the tested form may be a part, canonical isoform): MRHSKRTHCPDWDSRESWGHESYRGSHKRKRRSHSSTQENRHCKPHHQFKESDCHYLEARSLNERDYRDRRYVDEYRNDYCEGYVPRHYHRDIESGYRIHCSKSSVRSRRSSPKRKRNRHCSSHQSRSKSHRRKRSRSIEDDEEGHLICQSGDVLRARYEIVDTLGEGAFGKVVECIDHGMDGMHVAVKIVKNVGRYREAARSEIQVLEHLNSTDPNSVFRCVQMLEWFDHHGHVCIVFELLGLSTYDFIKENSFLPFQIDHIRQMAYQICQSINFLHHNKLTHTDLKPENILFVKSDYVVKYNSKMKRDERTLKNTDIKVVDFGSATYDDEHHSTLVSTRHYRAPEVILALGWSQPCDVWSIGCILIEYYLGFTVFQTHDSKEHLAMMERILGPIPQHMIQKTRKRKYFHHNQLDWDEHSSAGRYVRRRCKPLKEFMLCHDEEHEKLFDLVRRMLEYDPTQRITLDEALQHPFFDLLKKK

[5] = biological target: Casein kinase I isoform gamma-2 (Homo sapiens) (UniProt P78368); experiment: Binding affinity to wild-type human full length CSNK1G2 (M1 to K415 residues) expressed in bacterial expression system assessed as residual binding level at 10 uM by Kinomescan method relative to control
[6] = biological target: Serine/threonine-protein kinase DCLK1 (Homo sapiens) (UniProt O15075); experiment: Binding affinity to wild-type human partial length DCAMKL1 (L270 to A662 residues) expressed in mammalian expression system assessed as residual binding level at 10 uM by Kinomescan method relative to control
Serine/threonine-protein kinase DCLK1 (Homo sapiens), sequence (O15075 whole entry, the tested form may be a part): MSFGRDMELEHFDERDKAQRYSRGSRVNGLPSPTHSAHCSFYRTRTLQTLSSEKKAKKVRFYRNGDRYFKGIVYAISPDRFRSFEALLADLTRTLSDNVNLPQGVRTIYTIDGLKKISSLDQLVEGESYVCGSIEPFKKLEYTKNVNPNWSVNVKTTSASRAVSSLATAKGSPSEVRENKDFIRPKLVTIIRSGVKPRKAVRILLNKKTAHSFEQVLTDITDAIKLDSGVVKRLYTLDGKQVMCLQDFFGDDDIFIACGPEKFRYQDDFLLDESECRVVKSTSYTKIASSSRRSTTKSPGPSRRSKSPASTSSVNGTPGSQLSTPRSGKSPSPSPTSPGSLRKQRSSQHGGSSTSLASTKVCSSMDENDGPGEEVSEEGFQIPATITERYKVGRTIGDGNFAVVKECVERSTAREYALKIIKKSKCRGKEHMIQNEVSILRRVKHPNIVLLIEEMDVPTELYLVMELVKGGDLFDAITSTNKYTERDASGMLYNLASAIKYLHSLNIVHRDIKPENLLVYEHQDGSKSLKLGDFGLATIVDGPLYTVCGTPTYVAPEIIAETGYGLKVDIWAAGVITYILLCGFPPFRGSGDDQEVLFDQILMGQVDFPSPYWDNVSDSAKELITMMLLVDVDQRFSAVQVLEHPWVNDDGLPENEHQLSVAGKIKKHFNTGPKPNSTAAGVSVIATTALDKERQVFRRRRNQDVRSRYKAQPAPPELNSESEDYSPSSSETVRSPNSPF

[7] = test system: Epidermal growth factor receptor (Homo sapiens), P00533 [L858R]; experiment: Binding affinity to human partial length EGFR L858R mutant (R669 to V1011 residues) expressed in bacterial expression system assessed as residual binding level at 10 uM by Kinomescan method relative to control
[8] = biological target: Receptor tyrosine-protein kinase erbB-2 (Homo sapiens) (UniProt P04626); experiment: Binding affinity to wild-type human partial length ERBB2 (K646 to V1225 residues) expressed in mammalian expression system assessed as residual binding level at 10 uM by Kinomescan method relative to control
[9] = biological target: Tyrosine-protein kinase Fes/Fps (Homo sapiens) (UniProt P07332); experiment: Binding affinity to wild-type human partial length FES (I527 to R822 residues) expressed in bacterial expression system assessed as residual binding level at 10 uM by Kinomescan method relative to control
[10] = test system: Receptor-type tyrosine-protein kinase FLT3 (Homo sapiens), P36888 [D835H]; experiment: Binding affinity to human partial length FLT3 D835H mutant (V592 to Y969 residues) expressed in bacterial expression system assessed as residual binding level at 10 uM by Kinomescan method relative to control
[11] = biological target: Interleukin-1 receptor-associated kinase 1 (Homo sapiens) (UniProt P51617); experiment: Binding affinity to wild-type human partial length IRAK1 (R194 to S712 residues) expressed in mammalian expression system assessed as residual binding level at 10 uM by Kinomescan method relative to control
Interleukin-1 receptor-associated kinase 1 (Homo sapiens), sequence (P51617 whole entry, looked up, the tested form may be a part): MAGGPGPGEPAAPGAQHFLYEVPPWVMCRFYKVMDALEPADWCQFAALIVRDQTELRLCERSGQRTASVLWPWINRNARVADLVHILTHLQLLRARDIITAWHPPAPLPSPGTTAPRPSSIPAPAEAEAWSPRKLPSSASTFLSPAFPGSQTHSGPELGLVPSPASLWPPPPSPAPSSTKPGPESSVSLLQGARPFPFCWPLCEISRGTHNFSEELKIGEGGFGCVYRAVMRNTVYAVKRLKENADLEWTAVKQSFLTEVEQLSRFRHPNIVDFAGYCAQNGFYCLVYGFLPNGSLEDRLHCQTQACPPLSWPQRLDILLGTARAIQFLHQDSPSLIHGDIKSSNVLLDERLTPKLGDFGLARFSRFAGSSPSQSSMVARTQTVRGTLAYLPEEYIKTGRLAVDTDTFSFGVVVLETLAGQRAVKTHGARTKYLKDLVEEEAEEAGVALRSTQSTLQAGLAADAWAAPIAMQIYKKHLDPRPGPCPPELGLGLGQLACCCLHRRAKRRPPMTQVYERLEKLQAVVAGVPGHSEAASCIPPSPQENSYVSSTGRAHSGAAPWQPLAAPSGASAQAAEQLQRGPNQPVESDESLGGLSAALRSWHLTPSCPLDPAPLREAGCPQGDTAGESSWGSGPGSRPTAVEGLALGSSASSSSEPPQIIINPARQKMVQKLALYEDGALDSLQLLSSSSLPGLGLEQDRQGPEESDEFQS

[12] = biological target: Mast/stem cell growth factor receptor Kit (Homo sapiens) (UniProt P10721); experiment: Binding affinity to wild-type human partial length autoinhibited KIT (Y545 to D952 residues) expressed in mammalian expression system assessed as residual binding level at 10 uM by Kinomescan method relative to control
[13] = biological target: Mitogen-activated protein kinase kinase kinase 2 (Homo sapiens) (UniProt Q9Y2U5); experiment: Binding affinity to wild-type human partial length MAP3K2 (S315 to H619 residues) expressed in mammalian expression system assessed as residual binding level at 10 uM by Kinomescan method relative to control
[14] = biological target: Serine/threonine-protein kinase 38 (Homo sapiens) (UniProt Q15208); experiment: Binding affinity to wild-type human partial length NDR1 (N33 to E449 residues) expressed in mammalian expression system assessed as residual binding level at 10 uM by Kinomescan method relative to control
Serine/threonine-protein kinase 38 (Homo sapiens), sequence (Q15208 2-465 limits assumed): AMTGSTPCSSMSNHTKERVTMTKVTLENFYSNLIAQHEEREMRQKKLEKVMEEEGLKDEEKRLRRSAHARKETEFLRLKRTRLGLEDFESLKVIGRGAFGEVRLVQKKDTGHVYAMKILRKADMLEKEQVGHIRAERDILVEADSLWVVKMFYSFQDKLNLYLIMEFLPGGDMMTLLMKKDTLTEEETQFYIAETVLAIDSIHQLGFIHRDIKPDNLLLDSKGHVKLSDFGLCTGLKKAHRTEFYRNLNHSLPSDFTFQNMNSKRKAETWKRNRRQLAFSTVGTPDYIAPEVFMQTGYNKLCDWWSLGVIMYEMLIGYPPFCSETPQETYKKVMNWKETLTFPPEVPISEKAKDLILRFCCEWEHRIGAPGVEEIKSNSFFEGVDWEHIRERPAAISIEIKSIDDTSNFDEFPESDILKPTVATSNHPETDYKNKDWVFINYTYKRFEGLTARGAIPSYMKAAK

[15] = biological target: Serine/threonine-protein kinase Nek2 (Homo sapiens) (UniProt P51955); experiment: Binding affinity to wild-type human partial length NEK2 (M1 to K309 residues) expressed in bacterial expression system assessed as residual binding level at 10 uM by Kinomescan method relative to control
Serine/threonine-protein kinase Nek2 (Homo sapiens), sequence (P51955 whole entry, the tested form may be a part): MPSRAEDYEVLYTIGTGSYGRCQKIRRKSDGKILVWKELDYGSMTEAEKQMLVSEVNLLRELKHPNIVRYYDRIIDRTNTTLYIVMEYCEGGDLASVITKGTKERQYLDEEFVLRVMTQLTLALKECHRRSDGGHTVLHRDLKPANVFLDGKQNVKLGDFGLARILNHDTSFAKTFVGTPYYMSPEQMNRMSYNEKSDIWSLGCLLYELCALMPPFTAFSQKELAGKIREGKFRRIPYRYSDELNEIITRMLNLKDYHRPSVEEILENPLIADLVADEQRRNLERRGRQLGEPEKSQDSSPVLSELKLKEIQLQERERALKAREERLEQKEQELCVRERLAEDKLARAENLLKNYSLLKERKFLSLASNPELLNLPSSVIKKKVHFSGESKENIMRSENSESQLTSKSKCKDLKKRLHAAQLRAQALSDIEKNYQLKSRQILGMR

[16] = biological target: Cyclin-dependent kinase 17 (Homo sapiens) (UniProt Q00537); experiment: Binding affinity to wild-type human full length PCTK2 (M1 to F523 residues) expressed in bacterial expression system assessed as residual binding level at 10 uM by Kinomescan method relative to control
Cyclin-dependent kinase 17 (Homo sapiens), sequence (Q00537 whole entry, looked up, the tested form may be a part): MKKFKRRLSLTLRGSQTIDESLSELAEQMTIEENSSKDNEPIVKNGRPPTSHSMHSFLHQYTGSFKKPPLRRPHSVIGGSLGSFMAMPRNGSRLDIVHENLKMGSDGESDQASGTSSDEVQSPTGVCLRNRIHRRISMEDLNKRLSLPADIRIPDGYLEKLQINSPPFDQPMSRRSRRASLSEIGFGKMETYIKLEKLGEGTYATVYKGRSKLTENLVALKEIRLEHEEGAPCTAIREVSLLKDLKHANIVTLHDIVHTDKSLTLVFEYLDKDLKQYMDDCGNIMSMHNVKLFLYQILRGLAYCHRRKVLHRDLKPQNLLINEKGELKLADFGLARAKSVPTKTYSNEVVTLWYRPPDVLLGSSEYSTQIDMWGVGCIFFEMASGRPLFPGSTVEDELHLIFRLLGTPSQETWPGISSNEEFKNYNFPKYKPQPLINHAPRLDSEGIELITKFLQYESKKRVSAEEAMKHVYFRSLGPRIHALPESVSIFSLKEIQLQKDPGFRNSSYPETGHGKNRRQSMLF

[17] = biological target: Platelet-derived growth factor receptor beta (Homo sapiens) (UniProt P09619); experiment: Binding affinity to wild-type human partial length PDGFRB (V582 to Y1009 residues) expressed in bacterial expression system assessed as residual binding level at 10 uM by Kinomescan method relative to control
[18] = biological target: Phosphatidylinositol 4-phosphate 3-kinase C2 domain-containing subunit beta (Homo sapiens) (UniProt O00750); experiment: Binding affinity to wild-type human partial length PIK3C2B (M1 to L1634 residues) expressed in mammalian expression system assessed as residual binding level at 10 uM by Kinomescan method relative to control
[19] = biological target: Phosphatidylinositol 4,5-bisphosphate 3-kinase catalytic subunit delta isoform (Homo sapiens) (UniProt O00329); experiment: Binding affinity to wild-type human partial length PIK3CD (R108 to Q1044 residues) expressed in mammalian expression system assessed as residual binding level at 10 uM by Kinomescan method relative to control
Phosphatidylinositol 4,5-bisphosphate 3-kinase catalytic subunit delta isoform (Homo sapiens), sequence (O00329 whole entry, the tested form may be a part, canonical isoform): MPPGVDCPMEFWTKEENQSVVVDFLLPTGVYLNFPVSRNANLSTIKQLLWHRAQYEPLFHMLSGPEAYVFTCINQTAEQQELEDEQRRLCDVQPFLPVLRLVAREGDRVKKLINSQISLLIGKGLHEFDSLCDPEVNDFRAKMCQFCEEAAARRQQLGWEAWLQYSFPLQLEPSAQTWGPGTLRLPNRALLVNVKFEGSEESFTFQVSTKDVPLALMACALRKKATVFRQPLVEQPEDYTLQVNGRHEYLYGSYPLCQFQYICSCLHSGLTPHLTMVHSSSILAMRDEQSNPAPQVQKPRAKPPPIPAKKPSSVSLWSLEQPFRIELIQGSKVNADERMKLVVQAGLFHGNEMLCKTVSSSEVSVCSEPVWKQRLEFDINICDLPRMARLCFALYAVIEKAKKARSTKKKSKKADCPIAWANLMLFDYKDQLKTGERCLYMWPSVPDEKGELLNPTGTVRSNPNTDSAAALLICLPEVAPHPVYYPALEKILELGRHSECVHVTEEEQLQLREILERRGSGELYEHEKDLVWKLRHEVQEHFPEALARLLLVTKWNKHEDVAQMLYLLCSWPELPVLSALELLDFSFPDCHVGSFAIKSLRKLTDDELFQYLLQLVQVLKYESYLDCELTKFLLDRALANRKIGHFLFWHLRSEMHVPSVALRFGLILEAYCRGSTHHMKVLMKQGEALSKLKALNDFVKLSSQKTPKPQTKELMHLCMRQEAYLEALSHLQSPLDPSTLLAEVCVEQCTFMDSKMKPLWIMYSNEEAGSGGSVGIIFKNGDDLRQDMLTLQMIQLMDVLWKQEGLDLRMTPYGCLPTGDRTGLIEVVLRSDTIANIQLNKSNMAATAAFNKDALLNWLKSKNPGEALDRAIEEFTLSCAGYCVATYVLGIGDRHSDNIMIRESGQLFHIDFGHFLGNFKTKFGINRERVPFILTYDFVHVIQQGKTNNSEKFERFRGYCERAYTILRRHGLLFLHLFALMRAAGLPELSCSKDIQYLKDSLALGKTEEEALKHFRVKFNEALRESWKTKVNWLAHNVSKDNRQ

[20] = biological target: Serine/threonine-protein kinase PknB (Mycobacterium tuberculosis) (UniProt P9WI81); experiment: Binding affinity to wild-type Mycobacterium tuberculosis partial length PKNB (M1 to G279 residues) expressed in mammalian expression system assessed as residual binding level at 10 uM by Kinomescan method relative to control
Serine/threonine-protein kinase PknB (Mycobacterium tuberculosis), sequence (P9WI81 whole entry, the tested form may be a part): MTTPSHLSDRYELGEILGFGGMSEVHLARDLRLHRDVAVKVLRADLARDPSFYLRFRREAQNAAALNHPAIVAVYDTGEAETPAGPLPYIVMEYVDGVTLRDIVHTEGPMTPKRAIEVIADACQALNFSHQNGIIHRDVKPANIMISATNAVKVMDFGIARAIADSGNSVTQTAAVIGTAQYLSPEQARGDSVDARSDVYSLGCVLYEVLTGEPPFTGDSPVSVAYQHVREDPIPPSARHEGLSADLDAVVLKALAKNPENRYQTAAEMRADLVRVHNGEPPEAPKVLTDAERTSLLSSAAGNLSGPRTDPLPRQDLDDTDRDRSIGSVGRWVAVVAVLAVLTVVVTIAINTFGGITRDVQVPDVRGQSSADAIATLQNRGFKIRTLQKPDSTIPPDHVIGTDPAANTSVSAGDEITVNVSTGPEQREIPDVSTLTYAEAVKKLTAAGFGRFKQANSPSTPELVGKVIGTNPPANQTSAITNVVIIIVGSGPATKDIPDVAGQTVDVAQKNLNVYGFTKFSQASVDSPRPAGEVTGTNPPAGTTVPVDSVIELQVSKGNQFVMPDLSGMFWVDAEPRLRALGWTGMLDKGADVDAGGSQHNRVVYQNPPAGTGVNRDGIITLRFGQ

[21] = biological target: Interferon-induced, double-stranded RNA-activated protein kinase (Homo sapiens) (UniProt P19525); experiment: Binding affinity to wild-type human partial length PRKR (F247 to C551 residues) expressed in bacterial expression system assessed as residual binding level at 10 uM by Kinomescan method relative to control
[22] = biological target: Dual serine/threonine and tyrosine protein kinase (Homo sapiens) (UniProt Q6XUX3); experiment: Binding affinity to wild-type human full length RIPK5 (M1 to T929 residues) expressed in mammalian expression system assessed as residual binding level at 10 uM by Kinomescan method relative to control
[23] = biological target: Ribosomal protein S6 kinase alpha-5 (Homo sapiens) (UniProt O75582); experiment: Binding affinity to wild-type human partial length N-terminal RPS6KA5 kinase domain 1 expressed in bacterial expression system assessed as residual binding level at 10 uM by Kinomescan method relative to control
[24] = biological target: Serine/threonine-protein kinase SIK2 (Homo sapiens) (UniProt Q9H0K1); experiment: Binding affinity to wild-type human full length SIK2 (M1 to N926 residues) expressed in bacterial expression system assessed as residual binding level at 10 uM by Kinomescan method relative to control

O=C(Nc1cc(-c2cn(CCNc3c4c(nc5ccccc35)CCCC4)nn2)ccn1)Nc1cccc2c1C1CCCCN1C2=O (racemic)
Activity [1]: 15%
Activity [2]: 5.5%
Activity [3]: 0.61%
Activity [4]: 2.8%
Activity [5]: 68%
Activity [6]: 82%
Activity [7]: 80%
Activity [8]: 100%
Activity [9]: 92%
Activity [10]: 3.4%
Activity [11]: 8.7%
Activity [12]: 7%
Activity [13]: 9.1%
Activity [14]: 100%
Activity [15]: 94%
Activity [16]: 4.2%
Activity [17]: 2.3%
Activity [18]: 51%
Activity [19]: 100%
Activity [20]: 3.3%
Activity [21]: 45%
Activity [22]: 49%
Activity [23]: 55%
Activity [24]: 36%
